Counter-ions that a name gives are not always drawn. Like-named read-outs stand apart in the source and are kept apart here.
How the values were obtained:
HCV NS3 helicase [1] = biological target: T1, HCV NS3 helicase (Hepatitis C virus genotype 1b, UniProt P26662); test: FRET-based fluorescence helicase assay (dsRNA unwinding); assay type: biochemical
T1 construct: The full-length HCV NS3 protein, with serine protease and NTPase/helicase activities; made in house
Description: A fluorescence helicase assay based on FRET [26, 27], with modifications in the fluorescent dyes, was used to examine NS3 helicase inhibition by different compounds. […] The concentration of the capture strand was optimized to 400 nM based on the Z′ value; the Z′ value validates assay conditions as having reliability and reproducibility when its value is close to 1.
The FRET-based fluorescence helicase assay was performed as described previously, with modifications in the fluorescent dyes used. The dsRNA substrate was prepared by annealing the 5′ Alexa Fluor 700-labeled fluorescence strand to the 3′ BHQ3-labeled quencher strand in a 1:2 molar ratio. The dsRNA substrate contained the 3′-overhang that is necessary for the NS3 helicase to bind to it prior to duplex unwinding. The capture strand had sequence complementary to the quencher strand and prevented the unwound duplexes from reannealing. All the nucleic acid strands had the same nucleic acid sequences as described previously and were purchased from Japan Bio Services (Saitama, Japan). The reaction mixture contained 25 mM MOPS-NaOH (pH 6.5), 3 mM MgCl2, 2 mM dithiothreitol, 4 U RNasin (Promega, Madison, WI, USA), 50 nM dsRNA substrate, 400 nM capture strand, 5 mM ATP, a serial dilution of test compounds in DMSO vehicle, and 240 nM NS3 helicase in a total reaction volume of 20 µL. The full-length HCV NS3 protein, with serine protease and NTPase/helicase activities, was expressed and purified as described previously.
The reaction was started by the addition of HCV NS3 helicase and was performed at 37 °C for 30 min in a SpectraMax Gemini XS microplate reader (Molecular Devices, Sunnyvale, CA, USA). The fluorescence intensity was recorded every 20 s for 30 min. Helicase activity was calculated as the initial reaction velocity relative to that of the control (in the absence of a test compound but presence of DMSO vehicle). The IC50 was calculated using KaleidaGraph (Synergy Software, Reading, PA, USA) by fitting plots of % activity vs. [I] using Equation (1) unless otherwise stated: (1) % Activity= 100/1+([I]/IC50)^h where h is the Hill coefficient, and [I] is the inhibitor concentration.

NS3 helicase = conditions: read-out: IC50 for NS3 helicase inhibition, cited from earlier work
NS3 RNA-binding activity = biological target: T2, NS3 RNA-binding activity (Hepatitis C virus genotype 1b, UniProt P26662); test: RNA-binding assay (gel mobility-shift); conditions: 32P-labeled ssRNA, 300 nM NS3, 0–100 µM tested
T2 construct: The full-length HCV NS3 protein, with serine protease and NTPase/helicase activities; made in house
Description: As RNA binding is required for NS3 helicase activity, the effect of hypericin on NS3 RNA-binding activity was examined by gel mobility-shift assay (Figure 4). As a control, the non-specific binding of ssRNA to bovine serum albumin (BSA) was assessed (lane 2). The density of the upper bands corresponding to the NS3–ssRNA complex, which represents NS3 RNA-binding activity, decreased dose-dependently in the presence of hypericin, particularly in the concentration range of 3–10 µM.
NS3 RNA-binding activity was determined by gel mobility-shift assay, as described previously. The ssRNA (5′-[…]-3′) synthesized by Gene Design (Osaka, Japan) was labeled at the 5′-end with [γ-^32P]ATP (Muromachi Yakuhin) using T4 polynucleotide kinase (Toyobo, Osaka, Japan) at 37 °C for 60 min, and purified using the phenol-chloroform extraction method. The reaction mixture contained 30 mM Tris-HCl (pH 7.5), 100 mM NaCl, 2 mM MgCl2, 1 mM dithiothreitol, 20 U RNasin Plus (Promega), 300 nM NS3, 0.5 nM ^32P-labeled ssRNA, and increasing concentrations of hypericin in a total reaction volume of 20 μL. The reaction was performed at room temperature for 15 min. […] The labeled RNA bands were visualized using an Image Reader FLA-9000 (Fujifilm, Tokyo, Japan).

HCV NS3 helicase [2] = biological target: T1, HCV NS3 helicase; test: Gel-based helicase assay; assay type: biochemical; conditions: compared with the fluorescence helicase assay, Figure S2
Description: A gel-based helicase assay was performed as described previously. The dsRNA substrate was prepared by annealing the 5′ Alexa Fluor 488-labeled fluorescence strand to the non-labeled complementary strand in a 1:2 molar ratio. The dsRNA substrate and the capture strand had the same nucleic acid sequences as those used in the FRET-based fluorescence helicase assay, and were purchased from Japan Bio Services. The reaction mixture for HCV NS3 helicase had the same components as those used in the FRET-based fluorescence helicase assay, with increasing concentrations of a test compound in a total reaction volume of 20 µL, except for the fact that the concentration of the capture strand was 100 nM. The reaction was started by the addition of HCV NS3 helicase and performed at 37 °C for 60 min using the GeneAmp PCR System 2700 (Applied Biosystems, Foster City, CA, USA). […] The helicase activity was calculated as the ratio of the signal intensity derived from ssRNA in the sample containing inhibitor to that in the control sample containing DMSO vehicle instead of inhibitor.

[3] = tested on: Huh-7 cell line harboring the subgenomic replicon RNAs of HCV genotype 1b strain N; test: HCV replicon assay (luciferase); assay type: cell-based, Hepatitis C virus; conditions: for EC50: Hepatitis C virus, HCV subgenomic replicon, genotype 1b strain N, Huh-7, 72 h, mean ± SD of three replicates, read-out: EC50 (inhibition of HCV replication)
Description: The Huh-7 cell line harboring the subgenomic replicon RNAs of HCV genotype 1b strain N [51] was seeded at 2 × 10^4 cells per well in a 48-well plate and incubated at 37 °C for 24 h. The cells were treated with hypericin or sennidin A at various concentrations at 37 °C for 72 h, and then lysed in cell culture lysis reagent (Promega). A luciferase assay system (Promega) was used to determine the luciferase activity, and the luminescence was measured using a Luminescencer-JNR AB-2100 (ATTO, Tokyo, Japan), corresponding to the expression level of the HCV replicon. The anti-HCV activity of hypericin or sennidin A was calculated as the ratio of the intensity of the luminescence in the sample containing inhibitor to that in the control sample containing DMSO vehicle instead of inhibitor.

NS3 ATPase activity = biological target: T3, NS3 ATPase activity (Hepatitis C virus genotype 1b, UniProt P26662); test: ATPase assay ([γ-32P]ATP hydrolysis, thin-layer chromatography); assay type: biochemical; conditions: autoradiography, poly(U) RNA, 300 nM NS3, 0–100 µM tested
T3 construct: The full-length HCV NS3 protein, with serine protease and NTPase/helicase activities; made in house
Description: As the unwinding ability of NS3 helicase is dependent on ATP hydrolysis, the amount of inorganic phosphate (Pi) released from radioisotope-labeled ATP ([γ-^32P]ATP) was measured to determine the effects of hypericin on the ATPase activity of NS3 (Figure 3). The released ^32Pi was separated by thin-layer chromatography and visualized using autoradiography. The density of the upper spots corresponding to Pi, which represents ATPase activity, decreased dose-dependently, particularly in the concentration range of 1–5 µM hypericin. […] It is thus likely that hypericin inhibits NS3 helicase via the inhibition of ATPase activity.
NS3 ATPase activity was determined directly by monitoring [γ-^32P]ATP hydrolysis by thin-layer chromatography, as described previously. The reaction mixture contained 25 mM MOPS-NaOH (pH 7.0), 1 mM dithiothreitol, 5 mM MgCl2, 5 mM CaCl2, 1 mM [γ-^32P]ATP (Muromachi Yakuhin, Tokyo, Japan), 300 nM NS3, 0.1 μg/μL poly(U) ssRNA (Sigma-Aldrich), and increasing concentrations of hypericin in a total reaction volume of 10 μL. The reaction was conducted at 37 °C for 10 min, and stopped by the addition of 10 mM EDTA. […] The cellulose sheet was dried, and the released [γ-^32P]phosphoric acid was visualized using an Image Reader FLA-9000 (Fuji film, Tokyo, Japan).

Cytotoxicity assay (MTS) = assay type: cell-based; conditions: human, Huh-7 replicon cells, mean ± SD of three replicates, read-out: CC50 (reduction in cell viability)
Description: The Huh-7 cell line harboring the subgenomic replicon RNAs of HCV genotype 1b strain N [51] was seeded at 2 × 10^4 cells per well in a 48-well plate and incubated at 37 °C for 24 h. The cells were treated with hypericin or sennidin A at various concentrations at 37 °C for 72 h. The MTS assay was carried out to determine cytotoxicity using a CellTiter 96 aqueous one-solution cell proliferation assay kit (Promega) according to the manufacturer’s instructions. The cytotoxicity of hypericin or sennidin A was calculated as the ratio of the […] in the sample containing inhibitor to that in the control sample containing DMSO vehicle instead of inhibitor.

[4] = fluorescence helicase assay, dsRNA substrate, 240 nM NS3, 5 mM ATP, 37 °C, read-out: IC50 for NS3 helicase inhibition

T1 sequence (P26662 1027-1657): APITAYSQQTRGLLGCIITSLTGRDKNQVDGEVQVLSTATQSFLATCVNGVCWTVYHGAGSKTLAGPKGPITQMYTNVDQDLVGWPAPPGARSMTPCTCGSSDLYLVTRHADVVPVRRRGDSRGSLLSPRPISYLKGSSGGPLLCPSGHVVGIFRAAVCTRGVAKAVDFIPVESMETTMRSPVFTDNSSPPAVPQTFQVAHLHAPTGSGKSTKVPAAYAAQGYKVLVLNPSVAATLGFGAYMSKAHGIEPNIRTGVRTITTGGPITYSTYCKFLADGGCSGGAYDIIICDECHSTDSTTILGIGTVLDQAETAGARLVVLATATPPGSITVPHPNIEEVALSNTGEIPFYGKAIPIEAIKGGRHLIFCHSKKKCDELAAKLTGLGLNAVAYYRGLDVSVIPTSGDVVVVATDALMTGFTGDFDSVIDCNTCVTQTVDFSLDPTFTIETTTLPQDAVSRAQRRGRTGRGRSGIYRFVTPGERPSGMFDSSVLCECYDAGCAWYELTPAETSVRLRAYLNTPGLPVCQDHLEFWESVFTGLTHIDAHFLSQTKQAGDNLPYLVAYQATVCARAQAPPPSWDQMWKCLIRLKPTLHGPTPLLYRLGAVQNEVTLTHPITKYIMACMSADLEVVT
T3 sequence (P26662 1027-1657): as above
T2 sequence (P26662 1027-1657): as above

## O=C1c2ccccc2C(=O)c2c1cc(O)c(O)c2O [1,2,3-trihydroxyanthraquinone]
HCV NS3 helicase [1]; [4]
  IC50: 18 µM

## O=C1c2ccccc2C(=O)c2c(O)c(O)cc(O)c21 [1,2,4-trihydroxyanthraquinone]
HCV NS3 helicase [1]
  IC50: 11 µM

## O=C1c2ccccc2C(=O)c2c1ccc(O)c2O [1,2-dihydroxyanthraquinone]
HCV NS3 helicase [1]
  IC50: > 200 µM

## O=C1c2ccc(O)c(O)c2C(=O)c2c(O)ccc(O)c21 [1,4,5,6-tetrahydroxyanthraquinone]
HCV NS3 helicase [1]; [4]
  IC50: 98 µM

## O=C1c2c(O)ccc(O)c2C(=O)c2c(O)ccc(O)c21 [1,4,5,8-tetrahydroxyanthraquinone]
HCV NS3 helicase [1]; [4]
  IC50: 6 µM

## O=C1c2ccccc2C(=O)c2c(O)ccc(O)c21 [1,4-dihydroxyanthraquinone]
HCV NS3 helicase [1]; [4]
  IC50: 54 µM

## O=C1c2cccc(O)c2C(=O)c2cccc(O)c21 [1,5-dihydroxyanthraquinone]
HCV NS3 helicase [1]; [4]
  IC50: > 200 µM

## O=C1c2cccc(O)c2C(=O)c2c(O)cccc21 [1,8-dihydroxyanthraquinone]
HCV NS3 helicase [1]; [4]
  IC50: > 200 µM

## CC(C)CCC[C@@H](C)[C@H]1CC[C@H]2[C@@H]3CC=C4C[C@@H](OS(=O)(=O)O)CC[C@]4(C)[C@H]3CC[C@]12C [Cholesterol sulfate]
NS3 helicase; positive control of the gel-based helicase assay
  IC50: 1.7 µM

## Cc1cc(O)c2c(=O)c3c(O)cc(O)c4c5c(O)cc(O)c6c(=O)c7c(O)cc(C)c8c1c2c(c34)c(c78)c65 [Hypericin, hypericin]
NS3 RNA-binding activity
  Concentration range in which NS3 RNA-binding activity decreased dose-dependently: 3 to 10 µM
HCV NS3 helicase [1]
  IC50: 3 µM
HCV NS3 helicase [2]
  NS3 helicase inhibition in gel-based helicase assay: quite similar to that in the fluorescence helicase assay
[3]; CC50/EC50 in Huh-7 replicon cells
  SI, selectivity index (CC50/EC50): 11.7
[3]
  EC50: 3.5 ± 0.2 µM
NS3 ATPase activity
  Concentration range in which NS3 ATPase activity decreased dose-dependently: 1 to 5 µM
Cytotoxicity assay (MTS)
  CC50 at 72 h: 41.1 ± 9.5 µM

## O=C(O)c1cc(O)c2c(c1)[C@H]([C@@H]1c3cccc(O)c3C(=O)c3c(O)cc(C(=O)O)cc31)c1cccc(O)c1C2=O [Sennidin A, sennidin A]
HCV NS3 helicase [1]; [4]
  IC50: 0.8 µM
HCV NS3 helicase [2]
  NS3 helicase inhibition in gel-based helicase assay: quite similar to that in the fluorescence helicase assay
[3]
  EC50: > 80 µM
Cytotoxicity assay (MTS)
  CC50 at 72 h: > 80 µM

## O=C1c2c(O)ccc(O)c2C(=O)c2c(NCCNCCO)ccc(NCCNCCO)c21 [mitoxantrone]
NS3 helicase
  IC50: 6.7 µM
